Columns and labels:
[1] = target: T1, M1 muscarinic receptor (Homo sapiens, UniProt P11229); assay: Functional mobilization of intracellular calcium (FLIPR, Fluo-3), M1-CHO cells; assay type: cell-based; settings: compound nos. 1-454; for Emax: read-out: M1 Efficacy; for M1 Activity: M1-CHO cells, calcium mobilization
T1 construct: expressed in transfected cells; host or cells: CHO cells (M1-CHO, under zeocin and G418 selection)
T1 sequence (P11229 1-460): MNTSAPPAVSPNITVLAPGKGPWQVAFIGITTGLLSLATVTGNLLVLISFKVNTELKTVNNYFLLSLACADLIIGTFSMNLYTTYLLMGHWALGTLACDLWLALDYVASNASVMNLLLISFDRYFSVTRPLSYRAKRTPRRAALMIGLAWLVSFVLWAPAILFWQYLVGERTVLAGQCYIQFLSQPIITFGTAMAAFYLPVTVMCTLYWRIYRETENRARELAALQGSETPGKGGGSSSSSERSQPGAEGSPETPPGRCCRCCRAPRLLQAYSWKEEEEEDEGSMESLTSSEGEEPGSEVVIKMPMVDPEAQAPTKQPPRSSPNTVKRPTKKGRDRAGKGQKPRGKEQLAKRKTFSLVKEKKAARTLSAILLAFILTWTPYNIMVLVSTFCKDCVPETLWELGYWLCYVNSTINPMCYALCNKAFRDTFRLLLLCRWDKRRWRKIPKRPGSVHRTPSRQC
Summary of the method: (§1)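 Fluo-3 read-out, ex 488/em 540 nm, 60 sec on FLIPR 3. For agonist mode, compound added directly; for inhibition, 15 min compound pre-incubation before carbachol at EC80 (added as a 3× solution), or co-application. Buffer pH 7.4 with 1 mM probenecid; DMSO 0.5%.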

[2] = target: T2, M4 muscarinic receptor (Homo sapiens, UniProt P08173); assay: Functional mobilization of intracellular calcium (FLIPR, Fluo-3), M4-CHO cells; assay type: cell-based; settings: compound nos. 1-454; for Emax: read-out: M4 Efficacy; for M4 Activity: M4-CHO cells, calcium mobilization
T2 construct: expressed in transfected cells; host or cells: CHO cells (M4-CHO, under puromycin, zeocin and blasticidin selection)
T2 sequence (P08173 1-479): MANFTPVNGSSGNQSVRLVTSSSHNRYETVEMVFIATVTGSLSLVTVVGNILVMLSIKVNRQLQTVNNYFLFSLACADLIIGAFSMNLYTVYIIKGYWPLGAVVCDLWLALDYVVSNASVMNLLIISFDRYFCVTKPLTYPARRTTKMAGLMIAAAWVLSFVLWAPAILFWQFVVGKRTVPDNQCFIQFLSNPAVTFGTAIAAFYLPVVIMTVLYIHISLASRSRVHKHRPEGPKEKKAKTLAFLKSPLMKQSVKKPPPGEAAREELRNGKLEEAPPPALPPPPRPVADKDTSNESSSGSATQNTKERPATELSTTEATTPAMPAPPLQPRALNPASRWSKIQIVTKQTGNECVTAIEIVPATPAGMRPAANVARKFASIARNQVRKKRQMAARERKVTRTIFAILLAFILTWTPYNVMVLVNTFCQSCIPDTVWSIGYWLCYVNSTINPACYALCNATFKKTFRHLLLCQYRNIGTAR
Summary of the method: as §1

[3] = 100% efficacy is the maximum response obtained with the Carbachol control

| Structure (SMILES) | Emax [1, 3] | M1 Activity [1] | Emax [2, 3] | M4 Activity [2] | M1 Efficacy [1, 3] | M4 Efficacy [2, 3] |
| --- | --- | --- | --- | --- | --- | --- |
| CCOC(=O)N1CCC(N2CCC3(CC2)CN(CC(=O)CC)c2ccc(F)cc23)CC1 [compound 303] | > 85% | ++ (activity was measured to be between 0.7 μM and 3.0 μM) | < 55% | + (activity was measured to be greater than or equal to 4.0 μM) |  |  |
| COCCOC(=O)N1CC2(CCN(C3CC4CCC(C3)N4C(=O)O[C@@H]3CCOC3)CC2)c2cc(F)ccc21 (some centres unmarked) [compound 304] | 65 to 85% | +++ (activity was measured to be less than or equal to 0.7 μM) | < 55% | + (activity was measured to be greater than or equal to 4.0 μM) |  |  |
| CC(=O)NC1CC2(CCN(CC3CC4C=CC3C4)CC2)c2ccccc21 (centres unmarked) [compound 305] |  | + (activity was measured to be greater than or equal to 3.0 μM) |  | + (activity was measured to be greater than or equal to 4.0 μM) | + (efficacy was calculated to be 65% or less) | + (efficacy was calculated to be 55% or less) |
| CCCOC(=O)N1CCC(CN2CCC3(CC2)CN(C(C)=O)c2ccc(C)cc23)CC1 [compound 306] | < 65% | + (activity was measured to be greater than or equal to 3.0 μM) | < 55% | + (activity was measured to be greater than or equal to 4.0 μM) |  |  |
| CCOC(=O)N1CCC(CN2CCC3(CC2)CN(C(C)=O)c2c(F)cccc23)CC1 [compound 307] | 65 to 85% | ++ (activity was measured to be between 0.7 μM and 3.0 μM) | < 55% | + (activity was measured to be greater than or equal to 4.0 μM) |  |  |
| CCOC(=O)N1C2CCC1CC(N1CCC3(CC1)CNc1ccc(F)cc13)C2 (centres unmarked) [compound 310] | < 65% | ++ (activity was measured to be between 0.7 μM and 3.0 μM) | < 55% | + (activity was measured to be greater than or equal to 4.0 μM) |  |  |
| COCCOC(=O)N1C2CCC1CC(N1CCC3(CC1)CN(C(=O)C1CC1)c1ccc(F)cc13)C2 (centres unmarked) [compound 311] | 65 to 85% | +++ (activity was measured to be less than or equal to 0.7 μM) | 55 to 70% | + (activity was measured to be greater than or equal to 4.0 μM) |  |  |
| C1=C[C@H]2C[C@H]1C[C@H]2CN1CCC2(CCc3ccccc32)CC1 [compound 313] | < 65% | + (activity was measured to be greater than or equal to 3.0 μM) | < 55% | + (activity was measured to be greater than or equal to 4.0 μM) |  |  |
| CCOC(=O)N1CCC(C)(CN2CCC3(CC2)C[C@H](NC(C)=O)c2ccccc23)CC1 [compound 315] | < 65% | + (activity was measured to be greater than or equal to 3.0 μM) | < 55% | + (activity was measured to be greater than or equal to 4.0 μM) |  |  |
| C#CCOC(=O)N1CCC(CN2CCC3(CC2)CN(C(C)=O)c2ccc(F)cc23)CC1 [compound 316] | < 65% | + (activity was measured to be greater than or equal to 3.0 μM) | < 55% | + (activity was measured to be greater than or equal to 4.0 μM) |  |  |
| CCOC(=O)N1CCC(N2CCC3(CC2)CN(C(=O)CC)c2ccc(F)cc23)CC1 [compound 317] | < 65% | + (activity was measured to be greater than or equal to 3.0 μM) | < 55% | + (activity was measured to be greater than or equal to 4.0 μM) |  |  |
| CCOC(=O)N1C2CCC1CC(N1CCC3(CC1)CC(NC(C)=O)c1ccccc13)C2 (centres unmarked) [compound 318] | 65 to 85% | +++ (activity was measured to be less than or equal to 0.7 μM) | > 70% | +++ (activity was measured to be less than or equal to 0.1 μM) |  |  |
| CCOC(=O)N1CCC(CN2CCC3(CC2)C(=O)Nc2ccccc23)CC1 [compound 319] | < 65% | ++ (activity was measured to be between 0.7 μM and 3.0 μM) | < 55% | + (activity was measured to be greater than or equal to 4.0 μM) |  |  |
| CC(C)OC(=O)N1C2CCC1CC(N1CCC3(CC1)COc1ccc(F)cc13)C2 (centres unmarked) [compound 320] | 65 to 85% | ++ (activity was measured to be between 0.7 μM and 3.0 μM) | < 55% | + (activity was measured to be greater than or equal to 4.0 μM) |  |  |
| CCOC(=O)N1CCC(N2CCC3(CC2)CN(C(=O)c2ccno2)c2ccc(F)cc23)CC1 [compound 321] | 65 to 85% | ++ (activity was measured to be between 0.7 μM and 3.0 μM) | 55 to 70% | + (activity was measured to be greater than or equal to 4.0 μM) |  |  |
| CCOC(=O)N1C2CCC1CC(N1CCC3(CC1)CN(C(C)=O)c1c(F)cccc13)C2 (centres unmarked) [compound 322] | < 65% | ++ (activity was measured to be between 0.7 μM and 3.0 μM) | > 70% | +++ (activity was measured to be less than or equal to 0.1 μM) |  |  |
| CC(=O)N[C@@H]1CC2(CCN([C@@H]3C[C@@H]4CC[C@@H]3C4)CC2)c2ccccc21 [compound 323] | 65 to 85% | ++ (activity was measured to be between 0.7 μM and 3.0 μM) | 55 to 70% | + (activity was measured to be greater than or equal to 4.0 μM) |  |  |
| CCCC(=O)N1CC2(CCN(C3CCN(C(=O)OCC)CC3)CC2)c2cc(F)ccc21 [compound 324] | 65 to 85% | ++ (activity was measured to be between 0.7 μM and 3.0 μM) | 55 to 70% | + (activity was measured to be greater than or equal to 4.0 μM) |  |  |
| Fc1ccc2c(c1)C1(CCN(C3CCCCC3)CC1)CN2 [compound 325] | 65 to 85% | + (activity was measured to be greater than or equal to 3.0 μM) | < 55% | + (activity was measured to be greater than or equal to 4.0 μM) |  |  |
| CCOC(=O)N[C@H]1CC2(CCN(C[C@H]3C[C@H]4CC[C@H]3C4)CC2)c2ccccc21 [compound 326] | < 65% | + (activity was measured to be greater than or equal to 3.0 μM) | < 55% | + (activity was measured to be greater than or equal to 4.0 μM) |  |  |
| CCOC(=O)N1CCC(CN2CCC3(CC2)C(=O)N(C)c2ccccc23)CC1 [compound 327] | < 65% | + (activity was measured to be greater than or equal to 3.0 μM) | < 55% | + (activity was measured to be greater than or equal to 4.0 μM) |  |  |
| CCCC1CCC(N2CCC3(CC2)CNc2ccc(F)cc23)CC1 (centres unmarked) [compound 328] | < 65% | ++ (activity was measured to be between 0.7 μM and 3.0 μM) | 55 to 70% | + (activity was measured to be greater than or equal to 4.0 μM) |  |  |
| CCCOC(=O)N1C2CCC1CC(N1CCC3(CC1)CN(C(=O)OC1CCC1)c1ccc(F)cc13)C2 (centres unmarked) [compound 329] | 65 to 85% | +++ (activity was measured to be less than or equal to 0.7 μM) | < 55% | + (activity was measured to be greater than or equal to 4.0 μM) |  |  |

From patent US7858635B2 (priority 2005, dated 2010)
